Test results from patent US20260076974A1, “COMPOSITIONS FOR PREVENTING AND TREATING INFECTION COMPRISING AN ARTIFICIAL SWEETENER” (Brunel University London, priority 2022, published 2026).
Read-outs that look alike come from different tables or passages of the source.

Columns and labels:
P. aeruginosa PA14 [1] = test: Growth inhibition assay in nutrient medium (OD600); type: cell-based, Pseudomonas aeruginosa
A. baumannii AB5075 [2] = test: Growth inhibition assay in LB medium (OD600); type: cell-based, Acinetobacter baumannii
P. aeruginosa = test: Antibiotic susceptibility in the presence of sub-minimum inhibitory concentration of ace-K; type: cell-based, Pseudomonas aeruginosa; settings: grown in the presence of ace-K for 19 hours
A. baumannii AB5075 [3] = test: Carbapenem E strip on agar with sweetener
Excerpt: The data presented is a representative image of three biological replicates±SD.

A. baumannii = test: Crystal violet biofilm formation assay / minimum biofilm inhibition concentration; type: cell-based, Acinetobacter baumannii
Experimental: (§1) Biofilm formation is linked to 80% of hospital-associated infections and is a major factor in the routine failure of antibiotic therapy.
(§2) All samples were exposed to the artificial sweeteners in LB medium for 19 hours before crystal violet biofilm assay was performed. […] The data present the mean of three biological replicates±SD. *p≤0.05, *p≤0.001 versus the bacterial growth in control samples.
(§3) All samples were exposed to artificial sweeteners for 19 hours before crystal violet biofilm assay was performed.

[4] = tested on: A. baumannii gene expression
Experimental: Cells were spun down and washed in RNAlater to preserve mRNA. RNA was isolated using a Qiagen RNAeasy Kit with column DNAase digestion. RNA integrity was determined using a Bioanalyzer. Samples were further processed for RNA sequencing on an Illumina MiSeq with 12 million reads per sample. Quality control and adapter trimming was performed with bcl2fastq.

E. coli [5] = tested on: E. coli
E. coli [6] = tested on: E. coli; remark: listed apart in the source
Excerpt: (§4) N=3 biological triplicate, each with technical triplicates).

P. aeruginosa PA14 [7] = test: Crystal violet biofilm formation assay / minimum biofilm inhibition concentration; type: cell-based, Pseudomonas aeruginosa; settings: 3% (w/v) sucralose, […] (w/v) ace-K, LB medium, 19 hours
Experimental: as §1, §2, §3

A. baumannii AB5075 [8] = tested on: A. baumannii AB5075; parameters: species or system Acinetobacter baumannii
Experimental: In this model, porcine skin was either burnt or lacerated and the wound infected with A. baumannii AB5075 and left for 3.5 hours to allow a biofilm to form. The dressing was applied for 1 hour and viable cells were collected after treatment. […] Samples were tested in biological triplicate with technical quadruplets.
(8% (w/w)), potassium tetraborate (3% (w/w)), and PVA (3% ((w/w)) were added into a beaker and mixed with deionized water. The mixture was placed in a water bath and heated at 80° C. for three hours with watch glass while being swirled with a stirring rod every 1 hour. Once hydrogels had been obtained, they were placed in a petri dish with custom-made moulds.

[9] = […] sweetener, 19 hours, 37° C.
[10] = […] sweetener, 19 hours, LB medium

Excerpt for Klebsiella pneumoniae: as §4

OC[C@@H](O)[C@H](O)[C@@H](O)CO [xylitol, Xylitol]
bacterial growth in the presence of sweetener (P. aeruginosa PA14 [1]; [9]): inhibit the growth
bacterial growth in the presence of sweetener (A. baumannii AB5075 [2]; [10]): inhibit the growth

piperacillin/tazobactam
susceptibility to antibiotic in the presence of ace-K (P. aeruginosa): increased susceptibility

C[C@@H](O)[C@H]1C(=O)N2C(C(=O)O)=C(S[C@@H]3CN[C@H](C(=O)N(C)C)C3)[C@H](C)[C@H]12 [meropenem]
point to which growth was inhibited on the strip (A. baumannii AB5075 [3]; Control): ≥32 mg/L
point to which growth was inhibited on the strip (A. baumannii AB5075 [3]; SAC 1%): 29.33 ± 4.61 ns mg/L
point to which growth was inhibited on the strip (A. baumannii AB5075 [3]; SAC […]): 0.54 ± 0.19 mg/L

O=S(=O)([O-])NC1CCCCC1.[Na+] [cyclamate, sodium cyclamate]
concentration with significant impact on / inhibition of biofilm formation (A. baumannii): ≥ 4%
bacterial growth in the presence of sweetener (P. aeruginosa PA14 [1]): inhibit the growth
concentration showing significant / effective growth inhibition (P. aeruginosa PA14 [1]): ≥ 2%
number of genes significantly differentially expressed [4]: 288 genes
concentration inhibiting biofilm formation (E. coli [5]): ≥ 3%
bacterial growth in the presence of sweetener (A. baumannii AB5075 [2]): inhibit the growth
concentration showing significant / effective growth inhibition (A. baumannii AB5075 [2]): ≥ 2%
concentration showing significant / effective growth inhibition (Klebsiella pneumoniae): ≥ 2%
concentration inhibiting biofilm formation (K. pneumonia): ≥ 3%
concentration showing significant / effective growth inhibition (E. coli [6]): ≥ 0.1%

C[C@@H](O)[C@H]1C(=O)N2C(C(=O)O)=C(SCCN=CN)C[C@H]12 [imipenem]
point to which growth was inhibited on the strip (A. baumannii AB5075 [3]; Control): 21.33 ± 4.61 mg/L
point to which growth was inhibited on the strip (A. baumannii AB5075 [3]; SAC 1%): 18.67 ± 4.61 ns mg/L
point to which growth was inhibited on the strip (A. baumannii AB5075 [3]; SAC […]): 1 ± 0.43 mg/L

OCC1O[C@@H](O[C@@H]([C@H](O)[C@@H](O)CO)[C@H](O)CO)C(O)C(O)[C@H]1O (stereo partly drawn) [lactitol monohydrate, Lactitol]
bacterial growth in the presence of sweetener (A. baumannii AB5075 [2]; [10]): inhibit the growth

C[C@@H](O)[C@H]1C(=O)N2C(C(=O)O)=C(S[C@@H]3CN[C@H](CNS(N)(=O)=O)C3)[C@H](C)[C@H]12 [doripenem]
point to which growth was inhibited on the strip (A. baumannii AB5075 [3]; Control): 18.67 ± 4.61 mg/L
point to which growth was inhibited on the strip (A. baumannii AB5075 [3]; SAC 1%): 13.33 ± 2.31 ns mg/L
point to which growth was inhibited on the strip (A. baumannii AB5075 [3]; SAC […]): 0.46 ± 0.07 mg/L

OC[C@@H](O)[C@@H](O)CO [erythritol, Erythritol]
bacterial growth in the presence of sweetener (A. baumannii AB5075 [2]; [10]): inhibit the growth

OC[C@@H](O)[C@@H](O)[C@H](O)[C@@H](O)CO [sorbitol]
bacterial growth in the presence of sweetener (P. aeruginosa PA14 [1]; [9]): inhibit the growth

OC[C@@H](O)[C@@H](O[C@H]1O[C@H](CO)[C@@H](O)[C@H](O)[C@H]1O)[C@H](O)[C@@H](O)CO [maltitol, Maltitol]
bacterial growth in the presence of sweetener (P. aeruginosa PA14 [1]; [9]): inhibit the growth
bacterial growth in the presence of sweetener (A. baumannii AB5075 [2]; [10]): inhibit the growth

gentamicin
susceptibility to antibiotic in the presence of ace-K (P. aeruginosa): increased susceptibility

OC[C@H]1O[C@H](O[C@]2(CCl)O[C@H](CCl)[C@@H](O)[C@@H]2O)[C@H](O)[C@@H](O)[C@H]1Cl [sucralose, Sucralose]
biofilm formation (P. aeruginosa PA14 [7]): significantly inhibit biofilm formation
biofilm formation (A. baumannii; 3% (w/v) sucralose, […] (w/v) ace-K, LB medium, 19 hours): significantly inhibit biofilm formation
bacterial growth in the presence of sweetener (P. aeruginosa PA14 [1]; [9]): inhibit the growth
bacterial growth in the presence of sweetener (A. baumannii AB5075 [2]; [10]): inhibit the growth

polymyxin B [reference compound]
susceptibility to antibiotic in the presence of ace-K (P. aeruginosa): increased susceptibility
log reduction in viable cells (A. baumannii AB5075 [8]): 3.13 log
log reduction in viable cells (A. baumannii AB5075 [8]; burn wound biofilms, gauze loaded with 1.5 mL of 0.59 mg/mL polymyxin B singularly): 2.11 log

OC[C@@H](O)[C@@H](O)[C@H](O)[C@H](O)CO [mannitol, Mannitol]
bacterial growth in the presence of sweetener (A. baumannii AB5075 [2]; [10]): inhibit the growth
